In patent US10683292B2, “Purine and 3-deazapurine analogues as choline kinase inhibitors” (NERVIANO MEDICAL SCIENCES S.R.L., priority 2016, dated 2020):

Key:
Δ49N-hChoKα = target: T1, Δ49N-hChoKα (Homo sapiens, UniProt P35790); assay: Biochemical kinase inhibition assay (Kinase-Glo Luminescent Kinase Assay) on Δ49N-hChoKα; settings: ATP 5 μM, choline 5 μM, 60 minutes at rt; read-out: IC50 ChoKα
T1 construct: cDNA fragment 362-1534, corresponding to aminoacids 50-457; GST (N, cleaved yes); Prescission Protease recognition site (N, cleaved yes); made in house; host or cells: Escherichia coli BL21pLysS (DE3)
T1 sequence (P35790 50-457, stated change not applied): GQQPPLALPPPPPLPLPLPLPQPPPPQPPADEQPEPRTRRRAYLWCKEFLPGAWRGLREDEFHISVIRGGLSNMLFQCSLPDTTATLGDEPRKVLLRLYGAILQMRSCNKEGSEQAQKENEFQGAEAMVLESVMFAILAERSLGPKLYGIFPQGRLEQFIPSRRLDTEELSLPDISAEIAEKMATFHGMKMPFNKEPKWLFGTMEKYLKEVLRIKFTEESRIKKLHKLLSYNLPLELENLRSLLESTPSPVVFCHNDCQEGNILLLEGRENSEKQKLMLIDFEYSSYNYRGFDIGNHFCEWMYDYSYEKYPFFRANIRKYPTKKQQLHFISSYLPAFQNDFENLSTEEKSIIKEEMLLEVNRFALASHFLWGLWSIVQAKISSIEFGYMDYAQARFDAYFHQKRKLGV
Method: (§1) The biochemical activity of compounds against Δ49N-ChoKα and ChoKβ FL were determined using the Kinase-Glo™ Luminescent Kinase Assay (Promega cat. V6711).
(§2) Compounds were 3-fold serially diluted from 10 to 0.0005 μM, then incubated for 60 minutes at rt in the presence of ATP 5 μM, choline (5 μM for ChoKα and 20 μM for ChoKβ) and enzyme in a final volume of 19 μL of kinase buffer (50 mM Hepes pH 7.5, 10 mM MgCl2, 1 mM DTT, 3 μM Na3VO4 and 0.2 mg/mL BSA). The final concentration of DMSO was 1%.
(§3) At the end of the incubation, an amount of 19 μL of KinaseGlo Reagent was added to each well to stop the reaction and after 30 minutes the luminescence signal was measured using ViewLux reader (Perkin Elmer).
(§4) The data per each molecule are analyzed by an internally customized version of the SW package “Assay Explorer” which provides sigmoidal fittings of the ten-dilution curves for IC50 determination using a 4 parameter logistic equation: y=bottom+(top−bottom)/(1+10^((log IC50−x)*slope)) where x is the logarithm of the inhibitor concentration, y is the response; y starts at bottom and goes to top with a sigmoid shape.

hChoKβ FL = target: T2, hChoKβ FL (Homo sapiens, UniProt Q9Y259); assay: Biochemical kinase inhibition assay (Kinase-Glo Luminescent Kinase Assay) on hChoKβ FL; settings: ATP 5 μM, choline 20 μM, 60 minutes at rt; read-out: IC50 ChoKβ
T2 construct: hChoKβ full length (FL), corresponding to aminoacids 2-395; GST (N, cleaved yes); Prescission Protease recognition site (N, cleaved yes); made in house; host or cells: Escherichia coli BL21pLysS (DE3)
T2 sequence (Q9Y259 2-395): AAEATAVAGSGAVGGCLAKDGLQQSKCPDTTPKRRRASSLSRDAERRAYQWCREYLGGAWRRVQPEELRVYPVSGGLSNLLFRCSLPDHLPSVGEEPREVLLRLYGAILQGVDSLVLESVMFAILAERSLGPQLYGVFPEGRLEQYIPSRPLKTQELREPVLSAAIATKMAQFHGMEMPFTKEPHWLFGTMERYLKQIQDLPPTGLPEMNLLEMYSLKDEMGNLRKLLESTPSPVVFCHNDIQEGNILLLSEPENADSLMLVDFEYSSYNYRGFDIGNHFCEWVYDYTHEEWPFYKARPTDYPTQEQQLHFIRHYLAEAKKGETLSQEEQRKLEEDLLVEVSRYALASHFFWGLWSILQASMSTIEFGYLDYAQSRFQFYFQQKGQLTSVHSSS
Method: as §1, §2, §3, §4

IC50 (Δ49N-hChoKα) | IC50 (hChoKβ FL) | Structure (SMILES)
0.013 µM | 0.43 µM | CN1CCN(Cc2ccc(NC(=O)Cc3ccc(NC(=O)[C@H]4CC[C@@H](n5cnc6c(N)nc(Cl)nc65)CC4)cc3)cc2C(F)(F)F)CC1 [cpd 35, cis-4-(6-amino-2-chloro-9H-purin-9-yl)-N-{4-[2-({4-[(4-methylpiperazin-1-yl)methyl]-3-(trifluoromethyl)phenyl}amino)-2-oxoethyl]phenyl}cyclohexanecarboxamide]
0.043 µM | 5.47 µM | Nc1nc(Cl)nc2c1ncn2[C@H]1CC[C@@H](C(=O)Nc2nc3cc4c(cc3s2)OCO4)CC1 [cpd 186, cis-4-(6-amino-2-chloro-9H-purin-9-yl)-N-([1,3]dioxolo[4,5-f][1,3]benzothiazol-6-yl)cyclohexanecarboxamide]
0.053 µM | 1.35 µM | CN1CCN(Cc2ccc(NC(=O)Cc3ccc(NC(=O)[C@H]4CC[C@@H](n5cnc6c(N)nc(Cl)nc65)CC4)cc3)cc2)CC1 [cpd 36, cis-4-(6-amino-2-chloro-9H-purin-9-yl)-N-{4-[2-({4-[(4-methylpiperazin-1-yl)methyl]phenyl}amino)-2-oxoethyl]phenyl}cyclohexanecarboxamide]
0.795 µM |  | COc1cccc(NC(=O)[C@H]2CC[C@@H](n3cnc4c(N)nc(-c5ccc(F)nc5)nc43)CC2)c1 [cpd 19, cis-4-[6-amino-2-(6-fluoropyridin-3-yl)-9H-purin-9-yl]-N-(3-methoxyphenyl)cyclohexanecarboxamide]
0.419 µM |  | COc1cccc(NC(=O)[C@H]2CC[C@@H](n3cnc4c(N)nc(-c5ccnc(F)c5)nc43)CC2)c1 [cpd 15, cis-4-[6-amino-2-(2-fluoropyridin-4-yl)-9H-purin-9-yl]-N-(3-methoxyphenyl)cyclohexanecarboxamide]
 | > 10 µM | CC1(C)Cc2nc(NC(=O)[C@H]3CC[C@@H](n4cnc5c(N)nc(F)nc54)CC3)sc2C(C)(C)N1 [cpd 190, cis-4-(6-amino-2-fluoro-9H-purin-9-yl)-N-(4,4,6,6-tetramethyl-4,5,6,7-tetrahydro[1,3]thiazolo[5,4-c]pyridin-2-yl)cyclohexanecarboxamide]
0.883 µM |  | COc1cccc(NC(=O)[C@H]2CC[C@@H](n3cnc4c(N)nc(-c5ccnc(OC)c5)nc43)CC2)c1 [cpd 21, cis-4-[6-amino-2-(2-methoxypyridin-4-yl)-9H-purin-9-yl]-N-(3-methoxyphenyl)cyclohexanecarboxamide]
 | > 10 µM | COc1cccc(NC(=O)[C@H]2CC[C@@H](n3cnc4c(N)nc(-c5ccncc5)nc43)CC2)c1 [cpd 9, cis-4-[6-amino-2-(pyridin-4-yl)-9H-purin-9-yl]-N-(3-methoxyphenyl)cyclohexanecarboxamide]

Structure (SMILES) | IC50 (Δ49N-hChoKα) | IC50 (hChoKβ FL)
COc1cccc2sc(NC(=O)[C@H]3CC[C@@H](n4cnc5c(N)nc(Cl)nc54)CC3)nc12 [cpd 91, cis-4-(6-amino-2-chloro-9H-purin-9-yl)-N-(4-methoxy-1,3-benzothiazol-2-yl)cyclohexanecarboxamide] |  | 7.38 µM
COc1ccc2nc(NC(=O)[C@H]3CC[C@@H](n4cnc5c(N)nc(Cl)nc54)CC3)sc2c1 [cpd 92, cis-4-(6-amino-2-chloro-9H-purin-9-yl)-N-(6-methoxy-1,3-benzothiazol-2-yl)cyclohexanecarboxamide] |  | 5.03 µM
Nc1nc(Cl)nc2c1ncn2[C@H]1CC[C@@H](C(=O)Nc2nc3c(s2)CN(C2CC2)CC3)CC1 [cpd 184, cis-4-(6-amino-2-chloro-9H-purin-9-yl)-N-(5-cyclopropyl-4,5,6,7-tetrahydro[1,3]thiazolo[5,4-c]pyridin-2-yl)cyclohexanecarboxamide] |  | 6.71 µM
NC(=O)Cc1ccc2nc(NC(=O)[C@H]3CC[C@@H](n4cnc5c(N)nc(Cl)nc54)CC3)sc2c1 [cpd 177, cis-4-(6-amino-2-chloro-9H-purin-9-yl)-N-[6-(2-amino-2-oxoethyl)-1,3-benzothiazol-2-yl]cyclohexanecarboxamide] |  | 3.81 µM
